Consider 26 compounds from PubChem BioAssay AID179 (DTP/NCI, 2004).

This assay has as its system CEM cells HIV-1 protection, formazan growth assay. Briefly: NCI AIDS Antiviral Assay. To be noted: for IC50: measured here: growth of uninfected CEM cells. The gist of the method:
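Soluble formazan readout of cell growth; CEM cells ± HIV-1; 5 drug concs. ≥50% protection → retest; ≥50% again = moderately active; reproducible 100% = confirmed active.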

Activity calls are given as the source filed them.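 How the source made its calls: active means compounds giving half or more protection of infected cells from virus-caused growth loss, again on retest; inactive means the rest.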 Where a SMILES comes first, the peptide text is derived from it. The star is where a group is joined. Cbz = O=C(OCc1ccccc1)*

Regarding `O=S(O)CCCCSSCC(O)C(O)CSSCCCCS(=O)O` (stereo unspecified), the outcome was inactive.

For `CN(C)C(=S)Nc1nnc(Nc2ccccc2)s1`, the result was inactive. In the case of `O=C(O)CC1(CC(=O)Nc2nccs2)CCCCC1`, the EC50 was > 126 µM and the IC50 is > 126 µM.

As to `CC(=O)OCCCOCn1c(Cc2ccccc2)c(C)c(=O)[nH]c1=O`, the EC50 is 100 µM and the IC50 was > 200 µM.

Consider `S=C1CSc2c(ccc3ccccc23)N1`, for which the EC50 is > 200 µM and the IC50 was found to be 141 µM. Regarding `CC1CC(C)C(=O)C(C(=O)CC2CC(=O)NC2=O)C1` (stereo unspecified), the EC50 is > 200 µM and the half-inhibitory concentration (IC50) was > 200 µM. Consider `COc1cc(C(=O)O[C@@H]2[C@@H](OC(=O)c3cc(OC)c(OC)c(OC)c3)[C@@H](OC)O[C@@H]3CO[C@@H](c4ccccc4)O[C@@H]23)cc(OC)c1OC`, for which the EC50 is > 200 µM and the IC50 is > 200 µM. In the case of `N#CC(c1ccccc1)N(CCc1ccccc1)C(=O)Oc1ccccc1` (stereo unspecified), the EC50 is > 200 µM and the IC50 is > 200 µM. As for `NC(=O)NC(S(=O)(=O)O)S(=O)(=O)O`, the result was inactive. Turning to `Cc1ccc(S(=O)(=O)N2CCCN(S(=O)(=O)c3ccc(C)cc3)CCN(S(=O)(=O)c3ccc(C)cc3)CCCSCC2)cc1`, the EC50 is > 5.5 µM and the half-maximal inhibitory concentration (IC50) is > 5.5 µM.

`CN1CCC2c3c([nH]c4ccccc34)C(C)(C)OC2C1` (stereo unspecified): the EC50 was > 200 µM and the concentration for half-maximal inhibition (IC50) was > 200 µM.

On to `CCOC(=O)C1(C(=O)OCC)C[C@H](C)[C@](C)(O)C1`, for which the EC50 is > 200 µM and the IC50 was > 200 µM. In the case of `COc1ccc(-c2n[nH]c3nc4ccccc4n3c2=O)cc1`, the EC50 was > 200 µM and the 50% inhibitory concentration (IC50) was > 200 µM.

For `O=C1c2ccccc2-c2nc3ncccc3cc21`, the EC50 was > 200 µM and the IC50 came out at 33.9 µM. In the case of `C/C1=C/C(O)C/C(C)=C\C(O)C(=O)/C=C/C2C(CC1)C2(C)C` (stereo unspecified), the EC50 is > 200 µM and the IC50 was > 200 µM. For `CC(=O)N1[C@H](C(=O)O)CS[C@H]1c1ccncc1`, the result was inactive. Take `CC(=O)N(/N=C\c1ccc([N+](=O)[O-])cc1)c1ccccc1`: the EC50 was > 126 µM and the IC50 was > 126 µM. Consider `COc1cccc(C=C2N=C(c3ccccc3)N(n3c(-c4ccccc4)nc4ccccc4c3=O)C2=O)c1`, for which the EC50 is > 200 µM and the half-inhibitory concentration (IC50) came to 37.2 µM.

For `O/N=C1/CCCC/C1=C/c1ccc(Cl)cc1`, the outcome was inactive. As for `CCOC(=O)CCC(NC(=O)C(CC(=O)OC)NC(=O)OCc1ccccc1)C(=O)NC(CC(=O)OC)C(=O)NC(CCC(=O)OCC)C(=O)NC(CC(=O)OC)C(=O)NC(CCC(=O)OCC)C(=O)NC(CC(=O)OCC)C(=O)OCC` (stereo unspecified) (Cbz-D(OMe)E(OEt)D(OMe)E(OEt)D(OMe)E(OEt)D(OEt)-OEt; configuration not given here), the EC50 was > 200 µM and the IC50 is > 200 µM. For `CN(NC(=O)/C(=C/c1c(O)ccc2ccccc12)NC(=O)c1ccccc1)c1cn[nH]c(=O)c1Cl`, the EC50 is > 200 µM and the IC50 is > 200 µM. Consider `COc1ccc(CCNC(=O)[C@H]2CCCC[C@@H]2CCO)cc1OC`, for which the EC50 was > 200 µM and the IC50 was > 200 µM. For `CC(C)(C)c1ccc2c(c1)CNCCNCCNCc1cc(C(C)(C)C)ccc1OCC1(CO2)COc2ccc(C(C)(C)C)cc2CNCCNCCNCc2cc(C(C)(C)C)ccc2OC1`, the EC50 is > 1.51 µM and the IC50 is 0.813 µM. For `COc1ccc2nc3cc(Cl)ccc3c(NCCC[N+](C)(C)CCCCCCCCCCCCCCCC[N+](C)(C)CCCNc3c4ccc(Cl)cc4nc4ccc(OC)cc34)c2c1`, the result was inactive. Regarding `O=C(O)c1ccc([As](=O)(O)O)c([N+](=O)[O-])c1`, the half-maximal effective concentration (EC50) is > 200 µM and the concentration for half-maximal inhibition (IC50) was > 200 µM. As to `CCc1cccc(C(=O)NCCN(C)C)c1[N+](=O)[O-]`, the EC50 was > 200 µM and the 50% inhibitory concentration (IC50) is > 200 µM.
